The test has as its system L1210 leukemia ip in BDF1 mice, survival T/C. The test can be described thus: NCI In Vivo Anticancer Drug Screen. Data for tumor model L1210 Leukemia (intraperitoneal) in B6D2F1 (BDF1) mice. The note with it: endpoint: mean survival time, higher = longer survival. An outline of the steps:
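In this screen, tumor-bearing mice given compound are compared to those given vehicle, and their survival values are reported as a treated-to-control quotient.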

[1] abbreviates: dose: 100.0 mg/kg/injection, schedule: Q01DX001 (ip), vehicle: carboxymethylcellulose (CMC).
The mark [2] stands for this setting: dose: 400.0 mg/kg/injection, schedule: Q01DX001 (ip), vehicle: carboxymethylcellulose (CMC).
Where [3] appears, read: dose: 100.0 mg/kg/injection, schedule: Q04DX003 (ip), vehicle: Klucel (hydroxypropylcellulose) (HPC).
Where [4] appears, read: dose: 200.0 mg/kg/injection, schedule: Q04DX003 (ip), vehicle: Klucel (hydroxypropylcellulose) (HPC).
Where [5] appears, read: dose: 400.0 mg/kg/injection, schedule: Q04DX003 (ip), vehicle: Klucel (hydroxypropylcellulose) (HPC).

Molecules are shown by their SMILES. “And” between values parts separate entries of the source, which are not always exact repeats. Identical values can stand only once. Toxic doses and inconclusive results are not listed.

In the case of `COc1cc(N(CCCl)CCCl)c(OC)cc1/C=N/NC(=O)CC(N)C(=O)O` (stereo not given), the T/C was 107 % of control (dose: 12.37 mg/kg/injection, schedule: Q01DX009 (ip), vehicle: saline); 113 % of control (dose: 12.5 mg/kg/injection, schedule: Q01DX009 (ip), vehicle: saline with Tween-80); 112 % of control (dose: 18.75 mg/kg/injection, schedule: Q01DX009 (ip), vehicle: saline); 119 % of control (dose: 25.0 mg/kg/injection, schedule: Q01DX009 (ip), vehicle: saline with Tween-80); 112 % of control (dose: 28.12 mg/kg/injection, schedule: Q01DX009 (ip), vehicle: saline); 88 % of control (dose: 37.5 mg/kg/injection, schedule: Q01DX009 (ip), vehicle: saline). Also, the T/C by setting is: (dose: 37.5 mg/kg/injection, schedule: Q04DX003 (ip), vehicle: acetone) 111 % of control; (dose: 50.0 mg/kg/injection, schedule: Q01DX009 (ip), vehicle: saline with Tween-80) 119 % of control; (dose: 75.0 mg/kg/injection, schedule: Q01DX001 (ip), vehicle: saline) 123 % of control; (dose: 75.0 mg/kg/injection, schedule: Q01DX009 (ip), vehicle: saline) 88 % of control; (dose: 75.0 mg/kg/injection, schedule: Q04DX003 (ip), vehicle: acetone) 105 % of control; under setting [1], 115 % of control. Also, the T/C is 120 % of control (dose: 100.0 mg/kg/injection, schedule: Q01DX009 (ip), vehicle: other); 123 % of control (dose: 150.0 mg/kg/injection, schedule: Q01DX001 (ip), vehicle: saline); 113 % of control (dose: 150.0 mg/kg/injection, schedule: Q04DX003 (ip), vehicle: acetone); 120 % of control (dose: 177.0 mg/kg/injection, schedule: Q01DX001 (ip), vehicle: carboxymethylcellulose (CMC)); 124 % of control (dose: 266.0 mg/kg/injection, schedule: Q01DX001 (ip), vehicle: carboxymethylcellulose (CMC)); 118 % of control under setting [2]. Also, the T/C (dose: 600.0 mg/kg/injection, schedule: Q01DX001 (ip), vehicle: carboxymethylcellulose (CMC)) is 153 % of control.
With `CSc1ncnc2c1ncn2CC(=O)C1CCC2C3CCC4=CC(=O)CCC4(C)C3CCC12C` (stereo not given), the T/C is, setting by setting: (dose: 100.0 mg/kg/injection, schedule: Q01DX001 (sc), vehicle: steriod suspending solution) 99 % of control; (dose: 200.0 mg/kg/injection, schedule: Q01DX001 (sc), vehicle: steriod suspending solution) 100 % of control; (dose: 400.0 mg/kg/injection, schedule: Q01DX001 (sc), vehicle: steriod suspending solution) 99 % of control.
`N#Cc1cc(Cl)ccc1Cl`: the T/C (dose: 100.0 mg/kg/injection, schedule: Q01DX009 (ip), vehicle: gum acacia) was 100 % of control; the T/C (dose: 100.0 mg/kg/injection, schedule: Q04DX003 (ip), vehicle: gum acacia) was 98 % of control; the T/C (dose: 200.0 mg/kg/injection, schedule: Q01DX009 (ip), vehicle: gum acacia) is 103 % of control; the T/C (dose: 200.0 mg/kg/injection, schedule: Q04DX003 (ip), vehicle: gum acacia) was 95 % of control; the T/C (dose: 400.0 mg/kg/injection, schedule: Q01DX009 (ip), vehicle: gum acacia) is 95 % of control; the T/C (dose: 400.0 mg/kg/injection, schedule: Q04DX003 (ip), vehicle: gum acacia) was 93 % of control.
Take `Clc1cc(Cc2ccc(N=C/C=C/c3ccccc3)c(Cl)c2)ccc1N=C/C=C\c1ccccc1`: the T/C was 100 % of control (dose: 100.0 mg/kg/injection, schedule: Q04DX002 (ip), vehicle: Klucel (hydroxypropylcellulose) (HPC)); 93 % of control (dose: 200.0 mg/kg/injection, schedule: Q04DX002 (ip), vehicle: Klucel (hydroxypropylcellulose) (HPC)); 86 % of control (dose: 400.0 mg/kg/injection, schedule: Q04DX002 (ip), vehicle: Klucel (hydroxypropylcellulose) (HPC)).
Turning to `O=C(/C=C/c1cccnc1)/C=C/c1cccnc1`, the T/C (dose: 80.0 mg/kg/injection, schedule: Q01DX009 (ip), vehicle: Klucel (hydroxypropylcellulose) (HPC)) was 108 % of control.
Take `Clc1ccc(Cc2ccc(Cl)cc2)cc1`: the T/C runs as follows: under setting [1], 107 % of control; (dose: 200.0 mg/kg/injection, schedule: Q01DX001 (ip), vehicle: carboxymethylcellulose (CMC)) 100 % of control; under setting [2], 102 % of control.
On to `CC(=O)C(C(C)=O)c1cc(NS(=O)(=O)N(C)C)ccc1NS(=O)(=O)N(C)C`, for which the T/C was 89 % of control (dose: 75.0 mg/kg/injection, schedule: Q04DX003 (ip), vehicle: Klucel (hydroxypropylcellulose) (HPC)); 108 % of control (dose: 150.0 mg/kg/injection, schedule: Q04DX003 (ip), vehicle: Klucel (hydroxypropylcellulose) (HPC)); 96 % of control (dose: 300.0 mg/kg/injection, schedule: Q04DX003 (ip), vehicle: Klucel (hydroxypropylcellulose) (HPC)).
With `COc1cccc(NC(=S)NC2CCCCCCCCCCC2)c1`, the T/C reads like this: (dose: 100.0 mg/kg/injection, schedule: Q04DX002 (ip), vehicle: gum acacia) 94 % of control; (dose: 200.0 mg/kg/injection, schedule: Q04DX002 (ip), vehicle: gum acacia) 94 % of control; (dose: 400.0 mg/kg/injection, schedule: Q04DX002 (ip), vehicle: gum acacia) 94 % of control.
For the compound `Clc1ccnc2[nH]ncc12`, the T/C runs as follows: (dose: 60.0 mg/kg/injection, schedule: Q01DX001 (ip), vehicle: other) 97 % of control; (dose: 120.0 mg/kg/injection, schedule: Q01DX001 (ip), vehicle: other) 105 % of control.
Regarding `C=COP(OCCCC)OCCCC`, the T/C reads like this: (dose: 25.0 mg/kg/injection, schedule: Q04DX002 (ip), vehicle: saline) 94 % of control; (dose: 50.0 mg/kg/injection, schedule: Q04DX002 (ip), vehicle: saline) 91 % of control; (dose: 100.0 mg/kg/injection, schedule: Q04DX002 (ip), vehicle: saline) 93 % of control and 97 % of control; (dose: 200.0 mg/kg/injection, schedule: Q04DX002 (ip), vehicle: saline) 91 % of control; (dose: 400.0 mg/kg/injection, schedule: Q04DX002 (ip), vehicle: saline) 96 % of control.
Consider `CCNS(=O)(=O)c1ncnc2nc[nH]c12`, for which the T/C (dose: 44.0 mg/kg/injection, schedule: Q01DX Z (ip), vehicle: carboxymethylcellulose (CMC)) is 117 % of control; the T/C (dose: 44.0 mg/kg/injection, schedule: Q01DX Z (ip), vehicle: methylcellulose (MC)) is 98 % of control; the T/C (dose: 66.0 mg/kg/injection, schedule: Q01DX Z (ip), vehicle: carboxymethylcellulose (CMC)) was 123 % of control; the T/C (dose: 66.0 mg/kg/injection, schedule: Q01DX Z (ip), vehicle: methylcellulose (MC)) was 102 % of control; the T/C (dose: 100.0 mg/kg/injection, schedule: Q01DX Z (ip), vehicle: methylcellulose (MC)) is 106 % of control; the T/C (dose: 150.0 mg/kg/injection, schedule: Q01DX Z (ip), vehicle: methylcellulose (MC)) was 102 % of control.
As to `Brc1n[nH]nc1Br`, the T/C was 98 % of control (dose: 100.0 mg/kg/injection, schedule: Q04DX003 (ip), vehicle: saline with Tween-80); 104 % of control (dose: 200.0 mg/kg/injection, schedule: Q04DX003 (ip), vehicle: saline with Tween-80); 101 % of control (dose: 400.0 mg/kg/injection, schedule: Q04DX003 (ip), vehicle: saline with Tween-80).
`COc1cc(OC)c(N=Cc2ccc([N+](=O)[O-])s2)cc1Cl`: the T/C under setting [3] was 101 % of control, the T/C under setting [4] is 101 % of control and the T/C under setting [5] was 95 % of control.
`Cc1nc2c(N)nn(C)c2nc1C`: the T/C by setting is: (dose: 100.0 mg/kg/injection, schedule: Q01DX009 (ip), vehicle: saline with Tween-80) 96 % of control; (dose: 200.0 mg/kg/injection, schedule: Q01DX009 (ip), vehicle: saline with Tween-80) 102 % of control.
In the case of `CCCCOc1ccc(OC(=O)Nc2cc(C)ccc2C)cc1`, the T/C (dose: 100.0 mg/kg/injection, schedule: Q01DX009 (ip), vehicle: Klucel (hydroxypropylcellulose) (HPC)) is 91 % of control; the T/C under setting [3] is 108 % of control; the T/C (dose: 200.0 mg/kg/injection, schedule: Q01DX009 (ip), vehicle: Klucel (hydroxypropylcellulose) (HPC)) is 96 % of control; the T/C under setting [4] was 95 % of control; the T/C (dose: 400.0 mg/kg/injection, schedule: Q01DX009 (ip), vehicle: Klucel (hydroxypropylcellulose) (HPC)) was 98 % of control; the T/C under setting [5] is 90 % of control.
Regarding `Cc1ccccc1N1CCN(c2c3c(nc4ccccc24)CCCCC3)CC1`, the T/C was 93 % of control (dose: 100.0 mg/kg/injection, schedule: Q01DX001 (ip), vehicle: saline) and 93 % of control (dose: 400.0 mg/kg/injection, schedule: Q01DX001 (ip), vehicle: saline).

The values above are taken from PubChem BioAssay AID248 (DTP/NCI, 2004).
